Data reported in PMC11284790, “Targeting Myeloperoxidase Ameliorates Gouty Arthritis: A Virtual Screening Success Story” (Journal of Medicinal Chemistry, 2024).

Experiments:
[1] = test system: total peroxidase activity; assay: Paw tissue total peroxidase activity after MSU; assay type: in vivo, male C57BL/6 mice; details: intraperitoneal pretreatment (RL6 30 mg/kg), tissue collected at 6 h
Procedure: After the assessment of paw edema was completed, the mice were immediately anesthetized by inhalation of 2% isoflurane mixture in oxygen (O2). Subsequently, the surface of the hind paws was collected for the measurement of total peroxidase activity, IL-6, and IL-1β. These tissue samples were then frozen using dry ice and stored at −80 °C until further analysis. The frozen tissues were later pulverized into a fine powder using liquid nitrogen and homogenized in a phosphate buffer (100 mM, pH 7.4). For the analysis of total peroxidase activity, a portion of this homogenate was mixed with hexadecyltrimethylammonium (1% HTAB, pH 6.0), vigorously vortexed, and sonicated. The resulting mixture was then centrifuged at 10,000g for 10 min, at 4 °C, and heated at 60 °C for 2 h. The sample of each supernatant was incubated with a solution containing 50 mM phosphate buffer, 0.164 mg/mL of o-dianisidine dihydrochloride, and H2O2 (0.0005%, pH 6.0). […] Each unit represents the capacity to degrade 1 μmol of H2O2 per minute.[81]

hTERT-RPE1 cells = assay: Cell viability assay (XTT); assay type: cell-based; details: 2-50 μM, 72 h
Procedure: hTERT-RPE1 cells were seeded in 24-well plates at 2 × 10^4 cells per well. After 24 h, cells were treated with 2, 5, 10, 25, or 50 μM RL6, RL7, or PTU in a culture medium (DMEM/F-12 with HEPES and 10% FBS). DMSO was added to untreated cells at 0.42% concentration as a vehicle control. After 72 h of treatment, cells were washed with PBS and left in 200 μL of XTT working solution for 3 h. The working solution was prepared according to manufacturer’s instructions but diluted eightfold in PBS. The supernatant was transferred to a 96-well plate; absorbance was read at 450 and 750 nm in a Synergy (Biotek, Winooski, VE, USA) plate reader and presented as percentage of control.
Figure S5. Evaluation of cytotoxicity by XTT. hTERT-RPE1 cells were seeded in 24-
well plates at 2 × 10^4 cells per well. 24h later, cells were treated with RL6, RL7 or PTU
(2, 5, 10, 25, 50 µM) in culture medium (DMEM/F-12 with HEPES and 10% FBS).
Viable cells were assessed 72h after treatments by measuring absorbance of the
supernatant at 450 and 750 nm and are presented as percentage of control (0.42%
DMSO). Data are mean ± SEM of three independent experiments.

Human leukocyte MPO = Human leukocyte MPO (Homo sapiens, UniProt P05164); assay: Oxidation of the compounds by MPO/H2O2 (intrinsic fluorescence decay); assay type: biochemical; set-up: Human leukocyte MPO (EC 1.7.1.11) was purchased from Planta Natural Products; purchased Planta Natural Products (Vienna, Austria); host or cells: human leukocytes; details: 1 μM compound; for compound oxidation by MPO/H2O2 in the presence of chloride (fluorescence) / compound oxidation by MPO/H2O2 in the absence of chloride (fluorescence): 10 nM MPO; for compound oxidation by MPO/H2O2 in the presence of chloride (fluorescence): 40 μM H2O2, 140 mM NaCl; for compound oxidation by MPO/H2O2 in the absence of chloride (fluorescence): 40 μM H2O2, no chloride
Sequence of Human leukocyte MPO (P05164 279-745 limits assumed): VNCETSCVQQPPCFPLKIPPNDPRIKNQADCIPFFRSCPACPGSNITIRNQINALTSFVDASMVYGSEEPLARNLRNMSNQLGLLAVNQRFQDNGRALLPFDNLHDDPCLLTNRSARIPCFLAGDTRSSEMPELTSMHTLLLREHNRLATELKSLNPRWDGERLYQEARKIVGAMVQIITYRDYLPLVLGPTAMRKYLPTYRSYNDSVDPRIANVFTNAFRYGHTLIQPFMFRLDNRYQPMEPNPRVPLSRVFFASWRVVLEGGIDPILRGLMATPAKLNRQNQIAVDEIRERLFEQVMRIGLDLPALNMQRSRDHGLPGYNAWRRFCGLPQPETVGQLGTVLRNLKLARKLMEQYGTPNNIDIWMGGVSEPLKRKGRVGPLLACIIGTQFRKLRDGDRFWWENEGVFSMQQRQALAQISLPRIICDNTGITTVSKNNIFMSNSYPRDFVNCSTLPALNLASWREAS
Sequence of Human leukocyte MPO (P05164 165-278 limits assumed): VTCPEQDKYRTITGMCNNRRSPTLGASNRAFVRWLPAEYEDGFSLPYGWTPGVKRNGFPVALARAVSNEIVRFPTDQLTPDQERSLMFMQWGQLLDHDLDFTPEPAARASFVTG
Procedure: Changes in the absorption and fluorescence spectra of RL6 and RL7 were determined by incubating 1 μM compounds in 0.3% DMSO and phosphate buffer (20 mM, pH 7.4) with or without MPO (10 nM), diethylenetriaminepentaacetic acid (100 μM), taurine (5 mM), cetyltrimethylammonium chloride (0.03%), and NaCl (140 mM). In the chloride-free system, NaCl and taurine were omitted, and cetyltrimethylammonium chloride was replaced by cetyltrimethylammonium bisulfate. The reaction was performed in the absence or presence of Tyr (50 μM) and was started by adding 40 μM hydrogen peroxide. RL6 and RL7 consumption was monitored by fluorescence at λex = 413/λem = 603 nm for RL6 or λex = 306/λem = 603 nm for RL7 in a microplate reader.

[2] = Taurine chloroamine scavenger assay; details: 15 min at 37 °C, TMB readout
Procedure: Taurine chloramine was prepared by mixing hypochlorous acid (2.81 mM) with taurine (5 mM), cetyltrimethylammonium chloride (0.03%), NaCl (140 mM), and diethylenetriaminepentaacetic acid (100 μM) in phosphate buffer (20 mM, pH 7.4). The system was kept at 37 °C for 5 min for complete chloramine taurine formation. The compounds were added to this mixture and incubated for 15 min at 37 °C. Taurine chloramine was quantified by the oxidation of TMB (2 mM) catalyzed by iodide (100 μM).[33]

| Structure (SMILES) | reduction in total peroxidase activity in hind paw tissue [1] | cytotoxicity to hTERT-RPE1 cells (hTERT-RPE1 cells) | compound oxidation by MPO/H2O2 in the presence of chloride (fluorescence) (Human leukocyte MPO) | compound oxidation by MPO/H2O2 in the absence of chloride (fluorescence) (Human leukocyte MPO) | compound oxidation by MPO/H2O2 in the presence of tyrosine (fluorescence) (Human leukocyte MPO; 50 μM tyrosine) | scavenger activity toward taurine chloramine [2] |
| --- | --- | --- | --- | --- | --- | --- |
| Nc1cc2c3c(cccc3c1)C(=O)N(N)C2=O [RL6] | 61.5% | no cytotoxicity | did not undergo any alteration | did not undergo any alteration | No oxidation occurred | did not scavenge taurine chloramine |
| CN1CCc2nc3sc(C(=O)Nc4cccc(C#N)c4)c(N)c3cc2C1 [RL7] | unable to decrease | highly cytotoxic at 50 μM | further consumed in the full reaction system in the presence of chloride | not further enhanced by hydrogen peroxide/MPO | – | did not scavenge the milder oxidant taurine chloroamine |
